In general, IC50 refers to the concentration needed to halve the response being measured.

Data set [1] deals with B16 melanoma cells. In words: Inhibition of α-MSH-stimulated melanin formation (melanin measurement). It counts as cell-based, Mouse. As to conditions: α-MSH 10.0 nM, melanin released into medium, absorbance 405 nm, read-out: IC50, inhibition of α-MSH-induced melanogenesis. The procedure:
Mouse melanoma B16 cells were cultured in a 96-well culture plate (2.5 × 10^3 cells/well). Culture media were washed from each culture plates after 24 h and treated with freshly prepared 10% FBS-DMEM medium, various concentrations (such as 0.5, 1.0, 3.0, 10.0, 30.0, and 100.0 µM) of compound samples, and stimulants (α-MSH, 10.0 nM). Then, it was incubated at 37 °C for 72 h, and the amount of melanin released into the medium was determined by measuring the absorbance at wavelength of 405 nm using spectrophotometer (Molecular Device, San Jose, CA, USA). The absorbance of stimulated cells using α-MSH was used as a control, and the inhibition level was calculated by subtracting the absorbance values of cells that were not stimulated. The absorbance values were compared with standard curves obtained with synthetic melanin. The synthetic melanin (Sigma-Aldrich, St. Louis, MO, USA) was dissolved in 0.85 M KOH-10% DMSO solution; then, it was serially diluted with 10% FBS-DMEM medium and then aliquoted into a 96-well culture plate. Then, the absorbance of melanin was measured by a spectrophotometer at 405 nm, and a standard curve was prepared. Using this value, the amount of melanin released out of the cell was directly calculated. Results obtained by three or more sets of experiments were expressed as mean ± standard error.

A short description of data set [2]: Stability of CGA acyl analogues in methanol solution (HPLC). In kind it is physicochemical. The following applies: 25 °C. The procedure: The stability of the synthesized acyl analogues was measured in methanol, since the acetyl analogue of CGA was highly unstable in methanol solution. First, 10 mg of the sample was dissolved in 2 mL of methanol and stored at 25 °C. Then, purity was analyzed using HPLC (Shimadzu LC solution, Kyoto, Japan) for 28 days. The samples in methanol solution were diluted 10 times in the HPLC mobile phase ((A) 0.5% formic acid in H2O (B) 0.5% formic acid in acetonitrile (ACN), A/B = 20/80) and injected in HPLC column (inertsil ODS-3V C18 column (250 × 4.00 mm i.d; 5 μm)). Finally, the amount of acyl compound remaining in the solution was measured by calculating the area under the curve of the HPLC chromatogram, and the results were expressed in percentage units.

Values joined by “and” are separate entries in the source; they are usually repeats but may differ in a detail not shown here. Identical values can stand only once. Like-named read-outs stand apart in the source and are kept apart here.

`OC[C@H]1O[C@@H](Oc2ccc(O)cc2)[C@H](O)[C@@H](O)[C@@H]1O` [Arbutin, reference compound]: the half-maximal inhibitory concentration (IC50) in data set [1] (Mus musculus, B16, 72 h) turned out to be 380 ± 9.5 µM.
Consider `COc1ccc(-c2ccnc(NCc3ccccc3)c2)cc1OC` [Compound 6a, N-Benzyl-4-(3,4-dimethoxyphenyl)pyridin-2-amine], for which, in data set [1] (Mus musculus, B16, 72 h), the IC50 worked out at 17 ± 4 µM.
Regarding `COc1ccc(-c2ccnc(NCc3ccc(Cl)cc3)c2)cc1OC` [Compound 6b, N-(4-Chlorobenzyl)-4-(3,4-dimethoxyphenyl)pyridin-2-amine], the half-maximal inhibitory concentration (IC50) in data set [1] (Mus musculus, B16, 72 h) is 4.5 ± 0.7 µM.
As to `COc1ccc(-c2ccnc(NCc3cccc(Cl)c3)c2)cc1OC` [Compound 6c, N-(3-Chlorobenzyl)-4-(3,4-dimethoxyphenyl)pyridin-2-amine], the IC50 in data set [1] (Mus musculus, B16, 72 h) amounted to 5 ± 1.4 µM.
`COc1ccc(-c2ccnc(NCc3ccccc3Cl)c2)cc1OC` [Compound 6d, N-(2-Chlorobenzyl)-4-(3,4-dimethoxyphenyl)pyridin-2-amine]: the IC50 was 8.5 ± 0.7 µM in data set [1] (Mus musculus, B16, 72 h) and 8 ± 1 µM in data set [1] (72 h).
Take `COc1ccc(-c2ccnc(NCc3ccc(C(F)(F)F)cc3)c2)cc1OC` [Compound 6e, 4-(3,4-Dimethoxyphenyl)-N-(4-(trifluoromethyl)benzyl)pyridin-2-amine]: the IC50 in data set [1] (Mus musculus, B16, 72 h) came out at 8.5 ± 0.7 µM.
Take `COc1ccc(-c2ccnc(NCc3cccc(C(F)(F)F)c3)c2)cc1OC` [Compound 6f, 4-(3,4-Dimethoxyphenyl)-N-(3-(trifluoromethyl)benzyl)pyridin-2-amine]: the IC50 in data set [1] (Mus musculus, B16, 72 h) stood at 2.5 ± 0.7 µM.
Still for that read-out and setting: for `COc1ccc(-c2ccnc(NCc3ccccc3C(F)(F)F)c2)cc1OC` [Compound 6g, 4-(3,4-Dimethoxyphenyl)-N-(2-(trifluoromethyl)benzyl)pyridin-2-amine] the value was 7.5 ± 0.7 µM; for `COc1ccc(-c2ccnc(NCc3ccccc3)n2)cc1OC` [Compound 10a, N-Benzyl-4-(3,4-dimethoxyphenyl)pyrimidin-2-amine], above 100 µM; for `COc1ccc(-c2ccnc(NCc3ccc(Cl)cc3)n2)cc1OC` [Compound 10b, N-(4-Chlorobenzyl)-4-(3,4-dimethoxyphenyl)pyrimidin-2-amine], 54 ± 6 µM.
On to `COc1ccc(-c2ccnc(NCc3cccc(Cl)c3)n2)cc1OC` [Compound 10c, N-(3-Chlorobenzyl)-4-(3,4-dimethoxyphenyl)pyrimidin-2-amine], for which, in data set [1] (Mus musculus, B16, 72 h), the 50% inhibitory concentration (IC50) came to 32 ± 2 µM.
For the molecule `COc1ccc(-c2ccnc(NCc3ccccc3Cl)n2)cc1OC` [Compound 10d, N-(2-Chlorobenzyl)-4-(3,4-dimethoxyphenyl)pyrimidin-2-amine], in data set [1] (Mus musculus, B16, 72 h), the IC50 worked out at 40 ± 8 µM.
Regarding `COc1ccc(-c2ccnc(NCc3ccc(C(F)(F)F)cc3)n2)cc1OC` [Compound 10e, 4-(3,4-Dimethoxyphenyl)-N-(4-(trifluoromethyl)benzyl)pyrimidin-2-amine], the half-maximal inhibitory concentration (IC50) in data set [1] (Mus musculus, B16, 72 h) is above 100 µM.
On the same count and under the same terms, for `COc1ccc(-c2ccnc(NCc3cccc(C(F)(F)F)c3)n2)cc1OC` [Compound 10f, 4-(3,4-Dimethoxyphenyl)-N-(3-(trifluoromethyl)benzyl)pyrimidin-2-amine] the value was 20 ± 1 µM.
`CCCC(=O)Oc1ccc(/C=C/C(=O)OC2CCCCC2)cc1OC(=O)CCC` [Compound 13a, (E)-4-(3-(Cyclohexyloxy)-3-oxoprop-1-en-1-yl)-1,2-phenylene dibutyrate]: the 50% inhibitory concentration (IC50) in data set [1] (Mus musculus, B16, 72 h) turned out to be 1.1 ± 0.1 µM; in data set [1] (72 h), 1 ± 0.1 µM. Also, the “Amount remaining in methanol (HPLC area)” value in data set [2] (day 0) is recorded as 99.3294%; in data set [2] (day 1) it was 91.3520%; in data set [2] (day 2), 85.3800%; in data set [2] (day 3), 80.3685%; in data set [2] (day 4), 75.4921%; in data set [2] (day 5) it was 72.147%. The “Amount remaining in methanol (HPLC area)” value was 64.7751% in data set [2] (day 7); 59.4842% in data set [2] (day 9); 55.1819% in data set [2] (day 11); 43.3505% in data set [2] (day 21); 39% and 39.0229% in data set [2] (day 28).
Turning to `CCCCCC(=O)Oc1ccc(/C=C/C(=O)OC2CCCCC2)cc1OC(=O)CCCCC` [Compound 13b, (E)-4-(3-(Cyclohexyloxy)-3-oxoprop-1-en-1-yl)-1,2-phenylene dihexanoate], in data set [1] (Mus musculus, B16, 72 h), the IC50 worked out at 1.3 ± 0.4 µM. Besides, the “Amount remaining in methanol (HPLC area)” value in data set [2] (day 0) was found to be 99.8006%; in data set [2] (day 1), 93.7356%; in data set [2] (day 2), 89.9637%; in data set [2] (day 3) it was 86.8066%; in data set [2] (day 4) it was 83.9188%; in data set [2] (day 5), 82.1086%. Besides, the “Amount remaining in methanol (HPLC area)” value is 77.5962% in data set [2] (day 7); 74.0389% in data set [2] (day 9); 70.6843% in data set [2] (day 11); 58.4127% in data set [2] (day 21); 52% and 52.5500% in data set [2] (day 28).
`CC(C)(C)C(=O)Oc1ccc(/C=C/C(=O)OC2CCCCC2)cc1OC(=O)C(C)(C)C` [Compound 13c, (E)-4-(3-(Cyclohexyloxy)-3-oxoprop-1-en-1-yl)-1,2-phenylene bis(2,2-dimethylpropanoate)]: the IC50 in data set [1] (Mus musculus, B16, 72 h) came to 1.9 ± 0.1 µM. Moreover, the “Amount remaining in methanol (HPLC area)” value was 99.5492% in data set [2] (day 0); 99.3034% in data set [2] (day 1); 99.1518% in data set [2] (day 2); 99.0038% in data set [2] (day 3); 98.8061% in data set [2] (day 4); 98.5395% in data set [2] (day 5). Besides, the “Amount remaining in methanol (HPLC area)” value in data set [2] (day 7) was 97.9332%; in data set [2] (day 9), 97.4173%; in data set [2] (day 11), 96.8033%; in data set [2] (day 21), 95.0243%; in data set [2] (day 28) it was 94% and 94.0833%.
Turning to `O=C(/C=C/c1ccc(OC(=O)C2CCCCC2)c(OC(=O)C2CCCCC2)c1)OC1CCCCC1` [Compound 13d, (E)-4-(3-(Cyclohexyloxy)-3-oxoprop-1-en-1-yl)-1,2-phenylene dicyclohexanecarboxylate], in data set [1] (Mus musculus, B16, 72 h), the half-inhibitory concentration (IC50) came out at 2.3 ± 0.2 µM. Besides, the “Amount remaining in methanol (HPLC area)” value in data set [2] (day 0) is 98.9750%; in data set [2] (day 1), 96.9973%; in data set [2] (day 2), 95.8267%; in data set [2] (day 3), 94.6557%; in data set [2] (day 4), 93.5713%; in data set [2] (day 5), 93.0573%. In addition, the “Amount remaining in methanol (HPLC area)” value in data set [2] (day 7) came to 91.6229%; in data set [2] (day 9), 90.6724%; in data set [2] (day 11) it was 89.8768%; in data set [2] (day 21) it was 87.5571%.
On to `CC(C)COc1ccc(/C=C/C(=O)OC2CCCCC2)cc1OCC(C)C` [Compound 15, (E)-Cyclohexyl 3-(3,4-diisobutoxyphenyl)acrylate], for which the half-inhibitory concentration (IC50) in data set [1] (Mus musculus, B16, 72 h) was above 100 µM.
The same measure, in the same setting: the value for `COc1ccc(/C=C/C(=O)OC2CCCCC2)cc1OC` [Compound 17, (E)-Cyclohexyl 3-(3,4-dimethoxyphenyl)acrylate] was above 100 µM.
Turning to `CC(=O)Oc1ccc(/C=C/C(=O)OC2CCCCC2)cc1OC(C)=O` [Compound 18], the “Amount remaining in methanol (HPLC area)” value came to 99.5029% in data set [2] (day 0); 71.1918% in data set [2] (day 1); 55.5162% in data set [2] (day 2); 43.5699% in data set [2] (day 3); 33.7154% in data set [2] (day 4); 27.3752% in data set [2] (day 5). For the same molecule, the “Amount remaining in methanol (HPLC area)” value in data set [2] (day 7) is 16.5047%; in data set [2] (day 9), 10.5572%; in data set [2] (day 11) it was 6.9200%; in data set [2] (day 21), 1.4408%. In addition, the “Amount decomposed in methanol solution” value in data set [2] (within 10 days, HPLC) was “more than 90%”.
As for `O=c1cc(CO)occ1O` [Kojic acid, reference compound], the half-maximal inhibitory concentration (IC50) in data set [1] (Mus musculus, B16, 72 h) was found to be 54 ± 1.5 µM.

These data come from paper PMC8622415, “Inhibitory Effect of Chlorogenic Acid Analogues Comprising Pyridine and Pyrimidine on α-MSH-Stimulated Melanogenesis and Stability of Acyl Analogues in Methanol” (Pharmaceuticals, 2021).
